Several values for one entry are separate records, joined by “and”; a condition that tells them apart may be missing. Equal values may be shown once.
Tested on: Long Evans rats
Experiment: Behavioral satiety sequence (BSS)
Type: in vivo, Long Evans rat
Conditions: Compound I-19 0.3 mg/kg
Excerpt: The Behavioural Satiety Sequence (BSS) is a technique used to evaluate physiological satiety. It is based on the expression of a sequence of behaviors including eating, grooming, locomotor activity, followed by resting, which are typically observed in rodents post-ingestion (Halford et al, 1998, Pharmacology Biochemistry and Behaviour. 61(2): 159-168). The BSS is a widely used model for determining the effects of novel pharmaceuticals on food intake and measures of satiety in rodents (Oliveira et al, 2011, Revista de Nutrição. 24(4) 619-628), and to discriminate the cause of reduced food intake following pharmacological manipulation. For example, treatments that may reduce food intake by non-specific mechanisms, such as immobility, malaise, and taste adulteration, will disrupt this sequence (Halford et al, 1998, Pharmacology Biochemistry and Behaviour. 61(2): 159-168).
Specifically, 12 male Long-Evans rats were food-deprived for 22 h with a 2 h feeding period each day. Rats were trained to consume daily food during the 2 h period over 25 days. The testing phase was initiated once the rats consistently consumed 16-18 g of food per day with ≤10% variance in amount of feed consumed. Feeding took place in designated individual boxes in a quiet room separate from the housing room. Continuous remote monitoring via video camera during feeding was used to assess the BSS. Food consumption was measured by weighing the total available food before and after the 2 h feeding window, correcting for spillage. Lorcaserin (1 mg/kg) was included as a reference control (Higgins et al, 2011, Neuropsychopharmacology. 37(5): 1177-1191). Subjects were tested using a repeated-measures, Latin square design with 2-3 days wash-out between treatment cycles.
On scheduled test days, animals were monitored remotely via video camera during the feeding access period. The occurrence of four mutually exclusive behaviors (eating/drinking, grooming, active, rest) were individually scored. Over the 2 h feeding period, behaviors were assessed every 30 seconds. Scores were compiled into 23 5 min timebins (timebin 24 was removed due to early removal of animals) and the frequency of each behavior within each timebin was calculated to determine a temporal frequency of each measure (Rodgers et al, 2010, Pharmacology Biochemistry and Behaviour. 97: 3-14). Percentage time was plotted for each behavioral sequence in each timebin to compare between treatment groups (Higgins et al, 2011, Neuropsychopharmacology. 37(5): 1177-1191).

[1] = AVG of animals LT-1 to LT-12, 0-0.5 hours
[2] = raw data per animal LT-1 to LT-12, 0-0.5 hours
[3] = raw score per animal (LT-1 to LT-12)

## Clc1ccc(C2(OCC3OCCO3)c3ccccc3C3=NCCN32)cc1 (stereo not drawn) [Compound I-19]
AVG of animals LT-1 to LT-12
  BSS scoring G (grooming), Time Bin 19 (90-95 TOTAL), AVG: 0.05
  BSS scoring G (grooming), Time Bin 20 (95-100 TOTAL), AVG: 0.05
  BSS scoring G (grooming), Time Bin 21 (100-105 TOTAL), AVG: 0.02
  BSS scoring G (grooming), Time Bin 22 (105-110 TOTAL), AVG: 0.01
  BSS scoring G (grooming), Time Bin 23 (110-115 TOTAL), AVG: 0.05
  BSS scoring G (grooming), Time Bin 24 (115-120 TOTAL), AVG: 0.04
  BSS scoring R (resting), Time Bin 19 (90-95 TOTAL), AVG: 0.11
  BSS scoring R (resting), Time Bin 20 (95-100 TOTAL), AVG: 0.09
  BSS scoring R (resting), Time Bin 21 (100-105 TOTAL), AVG: 0.19
  BSS scoring R (resting), Time Bin 22 (105-110 TOTAL), AVG: 0.21
  BSS scoring R (resting), Time Bin 23 (110-115 TOTAL), AVG: 0.16
  BSS scoring R (resting), Time Bin 24 (115-120 TOTAL), AVG: 0.21
[1]
  BSS scoring A (active), Time Bin 1 (0-5 TOTAL), AVG: 0.09
  BSS scoring A (active), Time Bin 2 (5-10 TOTAL), AVG: 0.02
  BSS scoring A (active), Time Bin 3 (10-15 TOTAL), AVG: 0.03
  BSS scoring A (active), Time Bin 4 (15-20 TOTAL), AVG: 0.08
  BSS scoring A (active), Time Bin 5 (20-25 TOTAL), AVG: 0.07
  BSS scoring A (active), Time Bin 6 (25-30 TOTAL), AVG: 0.08
  BSS scoring E (eating/drinking), Time Bin 1 (0-5 TOTAL), AVG: 0.88
  BSS scoring E (eating/drinking), Time Bin 2 (5-10 TOTAL), AVG: 0.95
  BSS scoring E (eating/drinking), Time Bin 3 (10-15 TOTAL), AVG: 0.94
  BSS scoring E (eating/drinking), Time Bin 4 (15-20 TOTAL), AVG: 0.90
  BSS scoring E (eating/drinking), Time Bin 5 (20-25 TOTAL), AVG: 0.88
  BSS scoring E (eating/drinking), Time Bin 6 (25-30 TOTAL), AVG: 0.88
  BSS scoring G (grooming), Time Bin 1 (0-5 TOTAL), AVG: 0.03
  BSS scoring G (grooming), Time Bin 2 (5-10 TOTAL), AVG: 0.03
  BSS scoring G (grooming), Time Bin 3 (10-15 TOTAL), AVG: 0.03
  BSS scoring G (grooming), Time Bin 4 (15-20 TOTAL), AVG: 0.01
  BSS scoring G (grooming), Time Bin 5 (20-25 TOTAL), AVG: 0.03
  BSS scoring G (grooming), Time Bin 6 (25-30 TOTAL), AVG: 0.02
  BSS scoring R (resting), Time Bin 1 (0-5 TOTAL), AVG: 0.01
  BSS scoring R (resting), Time Bin 2 (5-10 TOTAL), AVG: 0.00
  BSS scoring R (resting), Time Bin 3 (10-15 TOTAL), AVG: 0.00
  BSS scoring R (resting), Time Bin 4 (15-20 TOTAL), AVG: 0.02
  BSS scoring R (resting), Time Bin 5 (20-25 TOTAL), AVG: 0.03
  BSS scoring R (resting), Time Bin 6 (25-30 TOTAL), AVG: 0.03
[2]
  BSS scoring A (active), Time Bin 1 (0-5 TOTAL): 1 (5×) and 0 (4×) and 2 (3×)
  BSS scoring A (active), Time Bin 2 (5-10 TOTAL): 0 (10×) and 1 (2×)
  BSS scoring A (active), Time Bin 3 (10-15 TOTAL): 0 (9×) and 2 and 1 (2×)
  BSS scoring A (active), Time Bin 4 (15-20 TOTAL): 0 (7×) and 1 (3×) and 2 and 4
  BSS scoring A (active), Time Bin 5 (20-25 TOTAL): 3 and 0 (7×) and 1 (3×) and 2
  BSS scoring A (active), Time Bin 6 (25-30 TOTAL): 1 (3×) and 0 (6×) and 2 (3×)
  BSS scoring E (eating/drinking), Time Bin 1 (0-5 TOTAL): 9 (6×) and 7 and 8 (3×) and 10 (2×)
  BSS scoring E (eating/drinking), Time Bin 2 (5-10 TOTAL): 9 (6×) and 10 (6×)
  BSS scoring E (eating/drinking), Time Bin 3 (10-15 TOTAL): 10 (6×) and 9 (5×) and 8
  BSS scoring E (eating/drinking), Time Bin 4 (15-20 TOTAL): 10 (4×) and 9 (6×) and 8 and 6
  BSS scoring E (eating/drinking), Time Bin 5 (20-25 TOTAL): 6 and 9 (6×) and 10 (3×) and 8 and 7
  BSS scoring E (eating/drinking), Time Bin 6 (25-30 TOTAL): 9 (2×) and 10 (5×) and 7 and 8 (3×) and 6
  BSS scoring G (grooming), Time Bin 1 (0-5 TOTAL): 0 (9×) and 1 (3×)
  BSS scoring G (grooming), Time Bin 2 (5-10 TOTAL): 1 (4×) and 0 (8×)
  BSS scoring G (grooming), Time Bin 3 (10-15 TOTAL): 0 (9×) and 1 (3×)
  BSS scoring G (grooming), Time Bin 4 (15-20 TOTAL): 0 (11×) and 1
  BSS scoring G (grooming), Time Bin 5 (20-25 TOTAL): 1 (4×) and 0 (8×)
  BSS scoring G (grooming), Time Bin 6 (25-30 TOTAL): 0 (10×) and 1 (2×)
  BSS scoring R (resting), Time Bin 1 (0-5 TOTAL): 0 (11×) and 1
  BSS scoring R (resting), Time Bin 2 (5-10 TOTAL): 0
  BSS scoring R (resting), Time Bin 3 (10-15 TOTAL): 0
  BSS scoring R (resting), Time Bin 4 (15-20 TOTAL): 0 (10×) and 1 (2×)
  BSS scoring R (resting), Time Bin 5 (20-25 TOTAL): 0 (10×) and 1 and 2
  BSS scoring R (resting), Time Bin 6 (25-30 TOTAL): 0 (10×) and 3 and 1
[3]
  BSS scoring A (active), Time Bin 19 (90-95 TOTAL): 0 (4×) and 5 (2×) and 2 (2×) and 6 and 3 and 1 (2×)
  BSS scoring A (active), Time Bin 20 (95-100 TOTAL): 3 (2×) and 2 (2×) and 0 (4×) and 1 (2×) and 4 (2×)
  BSS scoring A (active), Time Bin 21 (100-105 TOTAL): 0 (7×) and 1 (3×) and 2 (2×)
  BSS scoring A (active), Time Bin 22 (105-110 TOTAL): 0 (8×) and 4 and 1 and 2 (2×)
  BSS scoring A (active), Time Bin 23 (110-115 TOTAL): 4 (2×) and 3 and 1 and 0 (4×) and 6 (2×) and 2 and 7
  BSS scoring A (active), Time Bin 24 (115-120 TOTAL): 0 (6×) and 3 (2×) and 5 and 1 (2×) and 4
  BSS scoring E (eating/drinking), Time Bin 19 (90-95 TOTAL): 9 (5×) and 4 (2×) and 0 and 2 and 7 and 8 and 5
  BSS scoring E (eating/drinking), Time Bin 20 (95-100 TOTAL): 7 and 6 (2×) and 10 (3×) and 9 and 8 (2×) and 1 and 4 (2×)
  BSS scoring E (eating/drinking), Time Bin 21 (100-105 TOTAL): 10 (4×) and 9 (2×) and 6 and 7 and 0 and 8 and 5 and 4
  BSS scoring E (eating/drinking), Time Bin 22 (105-110 TOTAL): 10 (6×) and 0 (2×) and 3 and 7 and 8 and 5
  BSS scoring E (eating/drinking), Time Bin 23 (110-115 TOTAL): 5 (2×) and 6 and 9 (2×) and 1 (2×) and 4 (2×) and 0 and 8 and 10
  BSS scoring E (eating/drinking), Time Bin 24 (115-120 TOTAL): 0 (3×) and 6 (2×) and 10 and 4 (2×) and 2 and 8 (2×) and 5
  BSS scoring G (grooming), Time Bin 19 (90-95 TOTAL): 0 (8×) and 1 (3×) and 3
  BSS scoring G (grooming), Time Bin 20 (95-100 TOTAL): 0 (8×) and 1 (2×) and 2 (2×)
  BSS scoring G (grooming), Time Bin 21 (100-105 TOTAL): 0 (10×) and 1 (2×)
